This is an account of results in ChEMBL document CHEMBL1201862, “PubChem BioAssay data set” (2004).

Among the test systems are RXF 393; Malme-3M; OVCAR-3; A549; 786-0; SF-539; SK-MEL-2; SF-295; K562; OVCAR-8; XF498; HCT-15; HT-29; RPMI-8226; HOP-92.
What all share (test): NCI tumour cell line growth inhibition, 48 h

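Method: 48-hour compound exposure of cells in 96-well plates, five concentrations, linear interpolation of endpoints. GI50 = concentration required for 50% inhibition of growth.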 The source made the active and inactive calls. Rule as the data show it: active = GI50 up to about 1.1 µM and inactive = higher.

Regarding `Cc1cccc(NC(=O)Cc2nc3ccccc3s2)c1C`, the GI50 with RXF 393, with Malme-3M, in the test on OVCAR-3, in the test on A549, in the test on 786-0 and in the test with SF-539 was > 100 µM (inactive) throughout. Also, the GI50 in the test with SK-MEL-2 was > 100 µM (inactive); in the test on SF-295, > 100 µM (inactive); in the test on K562, > 100 µM (inactive); with OVCAR-8, > 100 µM (inactive); with XF498, > 100 µM (inactive); with HCT-15, above 100 µM. For the same molecule, the GI50 in the test on HT-29 and in the test on RPMI-8226 was > 100 µM (inactive) in each case.

Consider `CC12Oc3ccc4ccccc4c3C1c1c(ccc3ccccc13)O2` (stereo unspecified), for which the GI50 with RXF 393 is > 100 µM (inactive); in the test on Malme-3M, > 100 µM (inactive); with OVCAR-3 it was > 100 µM (inactive); with A549 it was > 100 µM (inactive); with 786-0, > 100 µM (inactive); in the test on SF-539 it was 78.2 µM (inactive). The GI50 is > 100 µM (inactive) with SK-MEL-2; 58.6 µM (inactive) in the test on SF-295; > 100 µM (inactive) with K562; > 100 µM (inactive) with OVCAR-8; > 100 µM (inactive) in the test on XF498; > 100 µM (inactive) with HT-29. The GI50 in the test on HOP-92 is 17.1 µM (inactive).

For the molecule `Clc1ncnc2c1ncn2CCCCCCCCCCCCn1cnc2c(Cl)ncnc21`, the GI50 with RXF 393 is 16.8 µM (inactive); with OVCAR-3 it was 11.2 µM (inactive); with A549, 11.7 µM (inactive); in the test on 786-0 it was 17.7 µM (inactive); in the test on SF-539, 14.4 µM (inactive); in the test on SK-MEL-2, 13.4 µM (inactive). Also, the GI50 with SF-295 is 15.4 µM (inactive); in the test with K562, 1.15 µM (inactive); in the test with OVCAR-8, 11.1 µM (inactive); with XF498, 9.38 µM (inactive); with HCT-15, 13.1 µM; in the test on HT-29, 9.82 µM (inactive). The GI50 in the test on HOP-92 was 5.24 µM (inactive); with RPMI-8226 it was 2.13 µM (inactive).

For `Cc1cc(C)nc(NS(=O)(=O)c2ccc(Nc3c4ccc(Cl)cc4nc4c(C(=O)Nc5ccc(S(=O)(=O)N=C(N)N)cc5)cccc34)cc2)n1`, the GI50 is 29.4 µM (inactive) in the test on RXF 393; 78.7 µM (inactive) in the test on Malme-3M; 96.6 µM (inactive) with OVCAR-3; > 100 µM (inactive) in the test on 786-0; > 100 µM (inactive) with SF-539; > 100 µM (inactive) in the test with SF-295. The GI50 with K562 was 73.5 µM (inactive); with OVCAR-8, > 100 µM (inactive); in the test on XF498, > 100 µM (inactive); in the test with HCT-15, above 100 µM; with HT-29, > 100 µM (inactive); in the test on RPMI-8226, 45.4 µM (inactive).

Consider `O=S(=O)(c1ccccc1)C1(C2(S(=O)(=O)c3ccccc3)CCN=N2)CCN=N1` (stereo unspecified), for which the GI50 in the test on RXF 393, with Malme-3M, in the test on OVCAR-3, in the test on A549, in the test with 786-0 and in the test with SF-539 was > 100 µM (inactive) throughout. Besides, the GI50 is > 100 µM (inactive) with SK-MEL-2; > 100 µM (inactive) in the test with SF-295; > 100 µM (inactive) in the test on K562; > 100 µM (inactive) in the test with OVCAR-8; > 100 µM (inactive) in the test on XF498; above 100 µM in the test with HCT-15. The GI50 in the test on HT-29 and in the test with RPMI-8226 was > 100 µM (inactive) in each case.

`CCO/C(CCn1[nH]c(=O)c(Cl)c(Cl)c1=O)=N\NC(=O)C(=O)NN`: the GI50 in the test on RXF 393, in the test with Malme-3M, in the test on OVCAR-3, in the test on A549, in the test with 786-0 and in the test with SF-539 was > 100 µM (inactive) in each case. Further, the GI50 in the test with SK-MEL-2 was > 100 µM (inactive); in the test on SF-295, > 100 µM (inactive); with K562, > 100 µM (inactive); in the test on OVCAR-8 it was > 100 µM (inactive); in the test on XF498, > 100 µM (inactive); in the test on HCT-15 it was above 100 µM. The GI50 with HT-29 and with RPMI-8226 was > 100 µM (inactive) throughout.
